Results published in patent publication US10138384B2, “Ophthalmic and contact lens solutions using bicine” (priority 2000, dated 2018).
Structures can show the parent of a compound that is named as a salt.

What was measured:
[1] = Reduced preservative binding to contact lenses (radio-labeled C14-PHMB, gamma counter); conditions: 1 percent w/v in phosphate buffer, 12 hours at 37 degrees C; for Preservative (C14-PHMB) binding, Average: average of lens A and B
From the text: Results were reported in ug/lens. […] The control was phosphate buffer and sodium chloride.

lysozyme = experiment: Protein deposition inhibition on contact lenses (lysozyme, BCA method); conditions: lenses soaked overnight in test solution (additives 1 percent w/v in phosphate buffer), then lysozyme 37 degrees C for 12 hours
Description: Contact lenses were soaked test solutions overnight. Afterwards, lysozyme was added to the tubes and warmed to 37 degrees C. for 12 hours. […] The lenses were assayed for protein deposition by the BCA method and detected on an HP PDA Spectrophotometer. Results were reported in ug/lens. […] The control was phosphate buffer and sodium chloride.

radio-labeled lysozyme = conditions: 1 percent w/v in phosphate buffer, 12 hours at 37 degrees Celsius
Description: Contact lenses were soaked and heated in test solutions to which a radio-labeled lysozyme was present in a known amount for a period of 12 hours at 37 degrees Celsius. The lenses were rinsed with distilled water in order to remove residual solution. The lenses were then assayed for protein deposition using a Beckman BioGamma I counter. Results were reported in ug/lens.
Choline chloride was a 1 percent w/v solution. The matrix control was phosphate buffer and sodium chloride.

C. albicans [2] = experiment: In vitro microbicidal activity, 0.2% phosphate buffer with PHMB (Example 4); format: cell-based; conditions: pH 7.2
C. albicans [3] = experiment: In vitro microbicidal activity, 0.1% phosphate buffer with PHMB and hydrogen peroxide (Example 3B); format: cell-based; conditions: additive 1%, PHMB 0.0001%, hydrogen peroxide 0.0060%; for C albicans log reduction: pH 7.0, 4 hours at room temperature; for Improvement (log reduction versus buffer control): pH 7.0, 4 hours, buffer control 0.41
Description: The solutions were made isotonic with sodium chloride and preserved with polyhexamethylene biquanide at 0.0001% and hydrogen peroxide at 0.0060%. Dequest […] was added as a stabilizer. The pH was adjusted to 7.0 with either 1 N sodium hydroxide. […] Subsequently, an aliquot of each solution was serial diluted onto agar plates and incubated for 48 hours at elevated temperatures. At the conclusion of the incubation period the plates are examined for the development of colonies. The log reduction was determined based on a comparison to the inoculum control. The following table provides the results of the in vitro studies.

[4] = additive 0.5%, 0.2% phosphate buffer, PHMB 0.0001%, 4 hours at room temperature
[5] = additive 0.5%, 0.2% phosphate buffer, PHMB 0.0001%, 4 hours, buffer control 0.99

Preservative (C14-PHMB) binding, Average [1] [ug/lens] | Preservative (C14-PHMB) binding, Lens A [1] [ug/lens] | Preservative (C14-PHMB) binding, Lens B [1] [ug/lens] | SMILES | C albicans log reduction (C. albicans [2]; [4]) [log] | Improvement (log reduction versus buffer control) (C. albicans [2]; [5]) | further results
7 | 6 | 8 | C[N+](C)(C)CC(=O)O [betaine HCI, Betaine HCl] | 1.37 | 0.38 | ug lysozyme per lens (lysozyme): 2.44 ug/lens
– | – | – | O=C(O)CN(CCO)CCO [bicine, N,N-Bis(2-hydroxyethyl)-glycline] | – | – | C albicans log reduction (C. albicans [3]): 0.75 log; Improvement (log reduction versus buffer control) (C. albicans [3]): 0.34
– | – | – | OCCN(CCO)C(CO)(CO)CO [bis-tris, Bis-(2-hydroxyethyl)imino-tns (hydroxymethyl) methane] | – | – | C albicans log reduction (C. albicans [2]): 1.21 log; Improvement (log reduction versus buffer control) (C. albicans [2]): 0.22
11 | 9 | 13 | C[N+](C)(C)CC(O)CC(=O)[O-] (centres unmarked) [carnitine, Carnitine] | 1.28 | 0.29 | –
– | – | – | C[N+](C)(C)CCO [choline, Choline] | 2.24 | 1.25 | –
– | – | – | CN(CC(=O)O)C(=N)N [creatine, Creatine] | 1.72 | 0.73 | –
– | – | – | CN1CC(=O)NC1=N [creatinine, Creatinine] | – | – | C albicans log reduction (C. albicans [3]): 1.42 log; Improvement (log reduction versus buffer control) (C. albicans [3]): 1.01
– | – | – | O=C(O)CNC(CO)(CO)CO [tricine, N-tris(hydroxymethyl)methyl glycine] | 1.33 | 0.34 | –
– | – | – | CCN(CC)CC [triethylamine, Triethylamine] | 1.64 | 0.65 | –

SMILES | Preservative (C14-PHMB) binding, Average [1] [ug/lens] | Preservative (C14-PHMB) binding, Lens A [1] [ug/lens] | Preservative (C14-PHMB) binding, Lens B [1] [ug/lens] | C albicans log reduction (C. albicans [2]; [4]) [log] | Improvement (log reduction versus buffer control) (C. albicans [2]; [5]) | further results
C[N+](C)(C)CCO.[Cl-] [Choline Chloride] | 14.5 | 18 | 11 | – | – | ug lysozyme per lens (lysozyme): 4.1 ug/lens; Protein deposition, Average (radio-labeled lysozyme; average of lens A and B): 12 ug/lens; Protein deposition, LensA (radio-labeled lysozyme; lens A): 14 ug/lens; Protein deposition, LensB (radio-labeled lysozyme; lens B): 9 ug/lens
